Data from patent US11059842B2, “Monosaccharide amine and 3-nitro-2-phenyl-2H-chromene based inhibitors of glucose kinases” (UNIVERSITY OF SOUTH CAROLINA, priority 2019, dated 2021).
Where “and” joins values, the source holds several entries; their conditions need not be identical. Equal values may be shown once.

Experiments:
[1] = test system: T. cruzi (Tulahuen strain) infective form (trypomastigote and amastigote life stages) co-cultured in NIH-3T3 fibroblasts; assay: T. cruzi infective form growth inhibition in NIH-3T3 fibroblasts; format: cell-based, Trypanosoma cruzi; conditions: Tulahuen strain infective form in NIH-3T3 fibroblasts; N = 3 (Amphotericin B control: 6 replicates)
Procedure: The curve and the IC50 were calculated from measurements determined in triplicate and expressed as percent growth inhibition of the T. cruzi parasite infection of mammalian cells.
Compounds were further screened against the T. cruzi (Tulahuen strain) infective form (trypomastigote and amastigote life stages) co-cultured in NIH-3T3 fibroblasts to establish IC50 values. Assays were performed in triplicate.
The single dose in vitro study included administration of the compounds in 80 μM inhibitor concentrations (N=3). Amphotericin B was used as a control.

[2] = test system: glucose-6-phosphate dehydrogenase (G6PDH); assay: G6PDH confirmatory assay (coupling enzyme counter-screen); format: biochemical; conditions: 20 μM compound; quadruplicate
Procedure: The 16 compounds showing substantial inhibition against TcGlcK at compound concentrations of 20 μM were then examined in a confirmatory assay in which the amino sugar analogues were at a concentration of 20 μM and were tested against the assay's only coupling enzyme, G6PDH, to verify enzyme activity; the assay was performed in quadruplicate. […] These confirmed hits included representatives from all three monosaccharide scaffolds tested (i.e., D-GlcN, D-ManN, and D-GalN).

[3] = molecular target: Homo sapiens hexokinase IV (HsHxKIV) (Homo sapiens (Human), UniProt P35557); assay: HsHxKIV enzyme-inhibition screening assay (Example 1); format: biochemical; conditions: 20 μM compound; N = 1
Sequence of Homo sapiens hexokinase IV (HsHxKIV) (P35557 whole entry): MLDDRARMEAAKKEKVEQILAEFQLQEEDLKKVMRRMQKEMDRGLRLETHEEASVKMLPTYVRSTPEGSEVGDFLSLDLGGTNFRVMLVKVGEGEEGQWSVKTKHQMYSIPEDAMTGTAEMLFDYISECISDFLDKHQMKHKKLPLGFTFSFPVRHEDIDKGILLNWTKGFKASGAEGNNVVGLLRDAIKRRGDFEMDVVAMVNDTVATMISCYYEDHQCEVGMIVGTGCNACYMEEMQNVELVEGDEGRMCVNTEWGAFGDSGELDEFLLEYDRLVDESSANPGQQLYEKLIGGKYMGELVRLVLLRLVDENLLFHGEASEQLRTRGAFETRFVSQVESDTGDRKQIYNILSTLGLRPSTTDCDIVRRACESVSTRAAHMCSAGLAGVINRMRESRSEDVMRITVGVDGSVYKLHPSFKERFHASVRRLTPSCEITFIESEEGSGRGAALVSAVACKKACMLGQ
Procedure: (§1) D-Glucose was also tested as a control with alternative substrates. The protein expression work for TcGlcK and HsHxKIV were each made possible through the E. coli strain BL21(DE3) system. Purification of each enzyme was performed through cobalt-NTA chromatography followed by size-exclusion chromatography; assessment of purity was performed by SDS-PAGE. In enzymatic assays, a time-optimum (TOPT) was determined to be 120 seconds for TcGlcK and 600 seconds for HsHxKIV; all assays were run at room temperature. A general reaction scheme included a first reaction in which the monosaccharide, ATP, and Mg^2+ react with the enzyme, e.g., TcGlcK, forming a hexose-phosphate and ADP. In a second reaction, hexose-phosphate with the assistance of glucose-6-phosphate dehydrogenase (G6PDH) and NADP^+ was converted to the lactone form of the hexose-phosphate and NADPH. Fluorescence of NADPH was monitored using a fluorescence microplate reader with […] wavelengths of 340 nm and 485 nm, respectively.
(§2) FIG. 4 and FIG. 5 present typical Michaelis-Menten enzyme kinetic plots for D-glucose. As shown, the NADP^+ to NADPH turnover rate is a function of [D-glucose] & [ATP] for TcGlcK (FIG. 4) and HsHxKIV (FIG. 5) absent inhibition. Michaelis-Menten constant (KM) values, which were used as the set final assay concentrations of substrates D-glucose and ATP for the primary screens, were determined for both TcGlcK and HsHxKIV in triplicate runs. The KM values for TcGlcK with respect to D-glucose and ATP were 0.40 mM and 0.34 mM, respectively. The KM values for HsHxKIV with respect to D-glucose and ATP were 43 mM and 0.20 mM, respectively.

[4] = molecular target: Trypanosoma cruzi glucokinase (TcGlcK) (Trypanosoma cruzi (strain CL Brener), UniProt Q4E4E1); format: biochemical; conditions: percentage of inhibition at 20 μM of the compound; N = 1
Sequence of Trypanosoma cruzi glucokinase (TcGlcK) (Q4E4E1 1-376): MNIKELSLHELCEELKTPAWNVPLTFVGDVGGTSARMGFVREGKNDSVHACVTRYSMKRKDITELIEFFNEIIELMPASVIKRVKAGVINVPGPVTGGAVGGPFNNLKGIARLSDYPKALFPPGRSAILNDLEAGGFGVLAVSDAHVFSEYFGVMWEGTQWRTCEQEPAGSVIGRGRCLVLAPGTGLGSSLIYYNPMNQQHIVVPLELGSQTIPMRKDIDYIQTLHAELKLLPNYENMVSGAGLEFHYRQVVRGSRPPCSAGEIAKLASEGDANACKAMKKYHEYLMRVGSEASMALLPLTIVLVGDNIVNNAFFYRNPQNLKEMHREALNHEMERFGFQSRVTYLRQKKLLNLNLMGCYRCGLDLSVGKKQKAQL
Procedure: as §1, with “In enzymatic assays, a time-optimum (TOPT) was determined to be 120 seconds for TcGlcK and 600 seconds for HsHxKIV; all assays were run at room temperature.” left out
Michaelis-Menten constant (KM) values, which were used as the set final assay concentrations of substrates D-glucose and ATP for the primary screens, were determined for both TcGlcK and HsHxKIV in triplicate runs. […]
The cutoff percentage was calculated by using normalized percent inhibition that took into consideration the positive and negative controls of the fluorescence readout from a fluorescence microplate reader. In addition, an unconfirmed hit was selected if the activity measurement was three standard deviations away from the mean of the positive controls.

[5] = molecular target: T1, TcGlcK (Trypanosoma cruzi (strain CL Brener), UniProt Q4E4E1); assay: Primary assay screen of TcGlcK, normalized percent inhibition (Example 2); format: biochemical; conditions: triplicate
T1 sequence (Q4E4E1 1-376): as above
Procedure: (§3) Primary assay screens of TcGlcK, LbGlcK, and HsHxKIV against the 3-nitro-2-phenyl-2H-chromene-based inhibitors compound nos. 19-22 were carried out. Compound 1, Benzoyl glucosamine (BENZ-GlcN or simply “BENZ”) and carboxybenzyl glucosamine (CBZ-GlcN or simply “CBZ”) were both used as controls due to their known inhibition against TcGlcK. LbGlcK was chosen to be tested against these compounds due to its 44% protein sequence similarity to TcGlcK.
(§4) All screens were done in triplicate and were analyzed using normalized percent inhibition (NPI) calculations. NPI calculations rely on positive and negative assay controls within the screen to account for any fluctuations in the fluorescence measurements.
(§5) The NPI for a compound to be considered a “hit” against TcGlcK required a value exceeding 60.5% inhibition in the primary screen. All four compounds ([…]) qualified as hits based off of this parameter. LbGlcK required compounds to be above 12.6% inhibition in its primary screen; all four compounds were also qualified as hits.

[6] = molecular target: HsHxKIV (Homo sapiens (Human), UniProt P35557); assay: Primary assay screen of HsHxKIV, normalized percent inhibition (Example 2); format: biochemical; conditions: triplicate
Sequence of HsHxKIV (P35557 whole entry): as the sequence (P35557 whole entry) above
Procedure: as §3, §4, §5

[7] = test system: T. brucei; assay: T. brucei in vitro screen; format: cell-based; conditions: Trypanosoma brucei; average; concentrations up to 10 μM, N=3
Procedure: Compounds 19-31 were screened against T. brucei. The single dose in vitro study included administration of the compounds in increasing concentrations up to 10 μM (N=3 for each compound concentration value). Media and T. bricei+0.5% SDS were used as control.

[8] = molecular target: T1, TcGlcK; assay: TcGlcK Michaelis-Menten kinetics and substrate range; format: biochemical
Procedure: as §1, §2
All phosphorylated hexoses were shown getting converted into their corresponding products by G6PDH, in abundant quantities through a 30-second time frame. This permitted the standard TcGlcK […] assay, which was timed for […], to be used as an assay to analyze alternative substrates.

Row | SMILES | IC50 [1] [µM] | G6PDH Inh20 (%) [2] [%] | HsHxKIV Inh20(%) [3] [%] | TcGlcK Inh20 (%) [4] | other results
1 | C[C@@H]1[C@H](O)[C@@H](C)/C=C/C=C/C=C/C=C/C=C/C=C/C=C/[C@H](O[C@@H]2O[C@H](C)[C@@H](O)[C@H](N)[C@@H]2O)C[C@@H]2O[C@](O)(C[C@@H](O)C[C@@H](O)[C@H](O)CC[C@@H](O)C[C@@H](O)CC(=O)O[C@H]1C)C[C@H](O)[C@H]2C(=O)O [Amphotericin B, reference compound] | 1.08 ± 0.84 |  |  |  | 
2 | O=C(N[C@H]1C(O)O[C@H](CO)[C@@H](O)[C@@H]1O)c1cccc(Br)c1 (stereo partly drawn) [Compound 2] | 66.2 ± 3.83 | 0.0 ± 0.0 | 31 | 57% | 
3 | O=C(N[C@H]1C(O)O[C@H](CO)[C@@H](O)[C@@H]1O)c1ccc(CCl)cc1 (stereo partly drawn) [Compound 3] | 52.9 ± 2.72 | 0.0 ± 0.0 | 35 | 42% | 
4 | O=C(N[C@H]1C(O)O[C@H](CO)C(O)[C@@H]1O)c1ccoc1 (stereo partly drawn) [Compound 6] | 49.9 ± 2.99 | 0.0 ± 0.0 | 41 | 51% | 
5 | O=C(N[C@@H]1C(O)O[C@H](CO)[C@@H](O)[C@@H]1O)c1ccccc1 (stereo partly drawn) [Compound 7] | 43.5 ± 0.68 | 0.0 ± 0.0 | 55 | 71% | 
6 | O=C(N[C@@H]1C(O)O[C@H](CO)[C@@H](O)[C@@H]1O)c1cccc(Br)c1 (stereo partly drawn) [Compound 8] | 38.4 ± 1.4 | 0.0 ± 0.0 | 27 | 35% | 
7 | O=C(N[C@@H]1C(O)O[C@H](CO)[C@@H](O)[C@@H]1O)c1ccc(CCl)cc1 (stereo partly drawn) [Compound 9] | 38.4 ± 1.41 | 0.0 ± 0.0 | 28 | 33% | 
8 | O=C(N[C@@H]1C(O)O[C@H](CO)[C@@H](O)[C@@H]1O)c1cc2ccccc2o1 (stereo partly drawn) [Compound 11] | 42.5 ± 6.5 |  | 12 | 10% | 
9 | O=C(N[C@@H]1C(O)O[C@H](CO)[C@@H](O)[C@@H]1O)c1ccoc1 (stereo partly drawn) [Compound 12] | 67.5 ± 1.75 | 0.0 ± 0.0 | 32 | 58% | 
10 | O=C(N[C@H]1C(O)O[C@H](CO)[C@H](O)[C@@H]1O)c1ccccc1 (stereo partly drawn) [Compound 13] | 55.3 ± 11.9 | 0.0 ± 0.0 | 38 | 59% | 
11 | O=C(N[C@H]1C(O)O[C@H](CO)[C@H](O)[C@@H]1O)c1cccc(Br)c1 (stereo partly drawn) [Compound 14] | 19.9 | 0.0 ± 0.0 | 30 | 31% and 30.8% | 
12 | O=C(N[C@H]1C(O)O[C@H](CO)[C@H](O)[C@@H]1O)c1ccc(CCl)cc1 (stereo partly drawn) [Compound 15] | 37.9 ± 4.77 |  | 8 | 27% | 
13 | Cc1ccc(C(=O)N[C@H]2C(O)O[C@H](CO)[C@H](O)[C@@H]2O)o1 (stereo partly drawn) [Compound 16] | 20.2 | 0.0 ± 0.0 | 41 | 30% | 
14 | O=C(N[C@H]1C(O)O[C@H](CO)[C@H](O)[C@@H]1O)c1cc2ccccc2o1 (stereo partly drawn) [Compound 17] | 66.6 ± 13.7 | 0.0 ± 0.0 | 37 | 39% | 
15 | O=C(N[C@H]1C(O)O[C@H](CO)[C@H](O)[C@@H]1O)c1ccoc1 (stereo partly drawn) [Compound 18] | 36.4 ± 1.47 | 0.0 ± 0.0 | 47 | 56% | 
16 | O=[N+]([O-])C1=Cc2ccccc2O[C@H]1c1ccccc1Cl [Compound 21] |  |  |  |  | NPI (%) TcGlcK [5]: 54.7%; NPI (%) HsHxKIV [6]: 51.8%
17 | CCOc1ccc(C2Oc3ccc(Br)cc3C=C2[N+](=O)[O-])cc1OC (stereo not drawn) [Compound 23, 6-Bromo-2-(4-ethoxy-3-methoxyphenyl)-3-nitro-2H-chromene] |  |  |  |  | IC50 [7]: 0.614 µM
18 | COc1ccc(C2Oc3c(cc(Br)cc3OC)C=C2[N+](=O)[O-])cc1OC (stereo not drawn) [Compound 25, 6-Bromo-2-(3,4-dimethoxyphenyl)-8-methoxy-3-nitro-2H-chromene] |  |  |  |  | IC50 [7]: 0.515 µM
19 | COc1ccc(C2Oc3ccc(Br)cc3C=C2[N+](=O)[O-])cc1OC (stereo not drawn) [Compound 26, 6-Bromo-2-(3,4-dimethoxyphenyl)-3-nitro-2H-chromene] |  |  |  |  | IC50 [7]: 0.435 µM
20 | COc1ccc(C2Oc3c(Br)cc(Br)cc3C=C2[N+](=O)[O-])cc1OC (stereo not drawn) [Compound 27, 6,8-Dibromo-2-(3,4-dimethoxyphenyl)-3-nitro-2H-chromene] |  |  |  |  | IC50 [7]: 0.416 µM
21 | CCOc1ccc(C2Oc3c(Br)cc(Br)cc3C=C2[N+](=O)[O-])cc1OC (stereo not drawn) [Compound 28, 6,8-Dibromo-2-(4-ethoxy-3-methoxyphenyl)-3-nitro-2H-chromene] |  |  |  |  | IC50 [7]: 0.356 µM
22 | CCOc1ccc(C2Oc3c(cc(Br)cc3OC)C=C2[N+](=O)[O-])cc1OC (stereo not drawn) [Compound 29, 6-Bromo-2-(4-ethoxy-3-methoxyphenyl)-8-methoxy-3-nitro-2H-chromene] |  |  |  |  | IC50 [7]: 0.743 µM
23 | CCOc1ccc(C2Oc3c(Cl)cc(Cl)cc3C=C2[N+](=O)[O-])cc1OCC (stereo not drawn) [Compound 30, 6,8-Dichloro-2-(3,4-diethoxyphenyl)-3-nitro-2H-chromene] |  |  |  |  | IC50 [7]: 0.664 µM
24 | O=C(CO)[C@@H](O)[C@H](O)[C@H](O)CO [D-fructose] |  |  |  |  | increase of TcGlcK activity from 15 mM to 50 mM substrate [8]: 2.58 fold; TcGlcK activity relative to D-glucose (100%) ([8]; substrate concentration 15 mM): 18.9%; TcGlcK activity relative to D-glucose (100%) ([8]; substrate concentration 50 mM): 48.8%
25 | O=C[C@H](O)[C@@H](O)[C@@H](O)[C@H](O)CO [D-galactose] |  |  |  |  | TcGlcK activity relative to D-glucose (100%) ([8]; substrate concentration 15 mM): 0.00%; TcGlcK activity relative to D-glucose (100%) ([8]; substrate concentration 50 mM): 0.00%
26 | O=C[C@@H](O)[C@@H](O)[C@H](O)[C@H](O)CO [D-mannose] |  |  |  |  | increase of TcGlcK activity from 15 mM to 50 mM substrate [8]: 2.69 fold; TcGlcK activity relative to D-glucose (100%) ([8]; substrate concentration 15 mM): 6.18%; TcGlcK activity relative to D-glucose (100%) ([8]; substrate concentration 50 mM): 16.6%
